Experimental data from US20240299424A1, “USE OF PHYTOCANNABINOIDS FOR TREATING ENDOMETRIAL CANCER AND ENDOMETRIOSIS” (INTEGRATIVE THERAPY DISCOVERY LAB S.R.L., priority 2021, published 2024).

Tests used:
[1] = tested on: 12Z endometriotic cell line; experiment: MTT cell viability assay, 12Z endometriotic cell line; type: cell-based, human; conditions: single administration, 72 hours post-treatment, FIG. 15-20
Description: (§1) Ishikawa is a well differentiated type I cell line, was purchased from Sigma Aldrich (Milan, Italy). Ishikawa cells were grown in EMEM medium (Lonza, Milan, Italy), supplemented with 5% fetal bovine serum (FBS), 2 mM/L of glutamine, 100 IU/ml of penicillin, and […] of streptomycin. Primary EC cells PCEM004A, poorly differentiated mixed type I/II cell line, was grown in RPMI1640, supplemented with 20% FBS, 2 mM/L of glutamine, 100 IU/ml of penicillin, and […] of streptomycin. Immortalized human endometriotic cell line (12Z) was generated by infecting cells, obtained from a person undergoing laparoscopy, with SV40 virus. This cell line was purchased by Applied Biological Materials Inc and was maintained in Prigrow III medium supplemented with 20% no-heat inactivated FBS, 100 IU/ml of penicillin and […] of streptomycin. Human pancreatic ductal adenocarcinoma PANC-1 cell line was purchased by Sigma Aldrich (Milan, Italy) and cultured in DMEM high glucose medium (EuroClone, Milan, Italy) supplemented with 10% FBS, 2 mM L-glutamine, 100 IU/mL penicillin, […] streptomycin and 1 mM sodium pyruvate. The human glioblastoma U251 cell line (grade IV), obtained from European Collection of Cell Cultures (ECACC, Salisbury, UK), was maintained in EMEM supplemented with 10% FBS, 2 mmol/L L-glutamine, 100 IU/mL penicillin and 100 μg streptomicin. Media were changed every 48 hours until cells were 90% confluent. All cell lines were maintained at 37 C with 5% CO2 and 95% humidity.
(§2) EC cell lines, PANC-1, U251, and 12Z (3×10^4 cells/ml) were plated in 96-well plates, in a final volume of 100 microl/well. After 24 hours, treatments or vehicles were added for 72 hours. At least six replicates were used for each treatment. At the indicated time point, cell viability was assessed by adding 0.8 mg/ml of 3-[4,5-dimethylthiazol-2-yl]-2,5 diphenyl tetrazolium bromide (MTT, Sigma-Aldrich) to the media. After 3 hours, the plates were centrifuged, the supernatant was removed, and the pellet was solubilized with 100 microl/well of DMSO. The absorbance of the samples against a background control (medium alone) was measured at 570 nm using an ELISA reader microliter plate (BioTek Instruments, Winooski, VT, United States). IC50 was calculated by PRISM 5.0a software, for single phytocannabinoids.

[2] = tested on: 12Z endometriotic cell line; experiment: Transwell invasion assay, 12Z endometriotic cells; type: cell-based, human; conditions: non-cytotoxic dose, 24 hours, Transwell/Matrigel, major effect order THC>CBG>CBD>CBDV>CBN>CBC, FIG. 22-30
Description: as §1
12Z cell invasion was evaluated by Transwell invasion assay using Transwell chambers (BD Biosciences, Franklin Lakes, NJ, USA) characterized by the upper face of the polycarbonate membrane covered with 1 mg/ml Matrigel. A total of 750 μl cell culture medium supplemented with 10% FBS was added in the lower chamber. Serum free culture medium ([…]) containing 2.5×10^4 12Z endometriotic cells was plated into the upper chamber with the appropriate treatment. After 24 hours of incubation, the cells remaining in the upper chamber were removed by cotton swabs. The cells on the lower and inner surface of the membrane were fixed in cold methanol, stained with hoechst and observed using a fluorescence microscope (BX51 fluorescence microscope, Olympus, Milan, Italy). A total of ten fields at ×10 magnification were selected at random to measure the average cell coverage using ImageJ software version 1.45s (National Institutes of Health, Bethesda, MD, USA). The experiments were performed in triplicate at least three times independently.

[3] = tested on: PCEM004A cells; experiment: MTT cell viability assay, primary mixed type PCEM004A endometrial cancer cell line; type: cell-based, human; conditions: 72 hours; for cytotoxicity (cell viability, % vs vehicle): phytocannabinoid alone, FIG. 5; for cytotoxicity (cell viability, % vs vehicle) in combination with chemotherapeutic drugs: with paclitaxel (PAC), doxorubicin (DOX) and cisplatin (CIS), FIG. 7-10
Description: as §1, §2

[4] = tested on: CXCL8; experiment: RT/PCR TaqMan array, CXCL8 gene expression in 12Z cells; type: cell-based, human; conditions: 48 hours, CBG, CBC, CBN 30 microM, CBD, CBDV 10 microM, THC 40 microM
Description: (§3) Total RNA from untreated or single treated 12Z cell line with CBD, CBG, CBC, CBN, CBDV and THC was extracted using Rneasy Mini kit (Qiagen, Milan, Italy). One microgram of total RNA from each sample was subjected to reverse transcription in a total volume of 20 μL using the High-Capacity cDNA Archive Kit (Applied Biosystem, Foster City, PA, USA) according to the instructions. cDNAs were analyzed by qRT-PCR performed using an IQ5 Multicolor Real time PCR Detection system. Quantitative real-time gene expression was performed with the TaqMan® Array Plate, containing 15 associated cytokine genes and beta-actin as endogenous control gene, was purchased (Thermo Fisher, Grand Island, NY, USA) and used to evaluate the treatments in modulating 12Z-related genes. Measurement of housekeeping gene (beta-Actin) on the samples was used to normalize mRNA content. The gene expression levels of treated cell lines were expressed as normalized fold compared with vehicle-treated cells.

[5] = tested on: Ishikawa cells; experiment: MTT cell viability assay, Ishikawa type I endometrial cancer cell line; type: cell-based, human; conditions: 72 hours; for cytotoxicity (cell viability, % vs vehicle) in combination: in double with cannabidiol (10, 15 and 20 microM CBD), FIG. 3-4; for cytotoxicity (cell viability, % vs vehicle): phytocannabinoid alone, FIG. 1; for cytotoxicity (cell viability, % vs vehicle) in combination with chemotherapeutic drugs: with paclitaxel (PAC), doxorubicin (DOX) and cisplatin (CIS), FIG. 7-10
Description: as §1, §2

[6] = tested on: PANC-1 cells; experiment: MTT cell viability assay, PANC-1 pancreatic ductal adenocarcinoma cell line; type: cell-based, human; conditions: PANC-1, 72 hours post-treatment, FIG. 11
Description: as §1, §2

[7] = tested on: endometrial cancer cell lines; experiment: MTT cell viability, endometrial cancer cell lines tested (Ishikawa and PCEM004A, stated jointly); type: cell-based, human; conditions: endometrial cancer cell lines, individual phytocannabinoids
Description: as §1, §2

[8] = tested on: U251 cells; experiment: MTT cell viability assay, U251 glioblastoma cell line; type: cell-based, human; conditions: U251, 72 hours post-treatment, FIG. 13
Description: as §1, §2

[9] = tested on: IL-6; experiment: RT/PCR TaqMan array, IL-6 gene expression in 12Z cells; type: cell-based, human; conditions: 48 hours, CBG, CBC, CBN 30 microM, CBD, CBDV 10 microM, THC 40 microM
Description: as §3

[10] = tested on: IL-33; experiment: RT/PCR TaqMan array, IL-33 gene expression in 12Z cells; type: cell-based, human; conditions: 48 hours, CBG, CBC, CBN 30 microM, CBD, CBDV 10 microM, THC 40 microM
Description: as §3

[11] = tested on: type I cells and mixed type endometrial cancer cell lines; conditions: cited from earlier work
[12] = tested on: STAT-3; experiment: RT/PCR TaqMan array, STAT-3 gene expression in 12Z cells; type: cell-based, human; conditions: 48 hours, CBG, CBC, CBN 30 microM, CBD, CBDV 10 microM, THC 40 microM
Description: as §3

[13] = tested on: IL-1beta; experiment: RT/PCR TaqMan array, IL-1beta gene expression in 12Z cells; type: cell-based, human; conditions: 48 hours, CBG, CBC, CBN 30 microM, CBD, CBDV 10 microM, THC 40 microM
Description: as §3

SMILES: C=C(C)[C@@H]1CCC(C)=C[C@H]1c1c(O)cc(CCC)cc1O [CBDV, 2-[(1R,6R)-3-methyl-6-prop-1-en-2-ylcyclohex-2-en-1-yl]-5-propylbenzene-1,3-diol]
- cytotoxicity (cell viability, % vs vehicle) [1]: induced cytotoxicity
- endometriosis cell invasion [2]: effective in reducing endometriosis cells invasion
- cytotoxicity (cell viability, % vs vehicle) [3]: induced cytotoxicity
- cytotoxicity (cell viability, % vs vehicle) in combination with chemotherapeutic drugs [3]: induced cytotoxicity
- CXCL8 gene expression (normalized versus vehicle) [4]: reduced
- cytotoxicity (cell viability, % vs vehicle) in combination [5]: induced cytotoxicity
- cytotoxicity (cell viability, % vs vehicle) [5]: induced cytotoxicity
- cytotoxicity (cell viability, % vs vehicle) in combination with chemotherapeutic drugs [5]: induced cytotoxicity
- cytotoxicity (cell viability, % vs vehicle) [6]: induced cytotoxicity
- dose dependence of effect on cell viability [7]: dose dependent effect
- cytotoxicity (cell viability, % vs vehicle) [8]: induced cytotoxicity
- IL-6 gene expression (normalized versus vehicle) [9]: reduced
- IL-33 gene expression (normalized versus vehicle) [10]: reduced

SMILES: C=C(C)[C@@H]1CCC(C)=C[C@H]1c1c(O)cc(CCCCC)cc1O [CBD, 2-[(1R,6R)-3-methyl-6-prop-1-en-2-ylcyclohex-2-en-1-yl]-5-pentylbenzene-1,3-diol, reference compound]
- cytotoxicity (cell viability, % vs vehicle) [1]: induced cytotoxicity
- endometriosis cell invasion [2]: effective in reducing endometriosis cells invasion
- chemotherapeutic drugs cytotoxicity ([11]; endometrial cancer cell lines): improves chemotherapeutic drugs cytotoxicity
- cell viability ([11]; type I cells (cell death) and mixed type endometrial cancer cell lines (autophagy)): reduces cell viability
- CXCL8 gene expression (normalized versus vehicle) [4]: reduced
- STAT-3 gene expression (normalized versus vehicle) [12]: reduced
- dose dependence of effect on cell viability [7]: dose dependent effect
- IL-1beta gene expression (normalized versus vehicle) [13]: reduced
- IL-6 gene expression (normalized versus vehicle) [9]: reduced
- IL-33 gene expression (normalized versus vehicle) [10]: reduced

SMILES: CCCCCc1cc(O)c(C/C=C(\C)CCC=C(C)C)c(O)c1 [CBG, 2-[(2E)-3,7-dimethylocta-2,6-dienyl]-5-pentylbenzene-1,3-diol]
- cytotoxicity (cell viability, % vs vehicle) [1]: induced cytotoxicity
- endometriosis cell invasion [2]: effective in reducing endometriosis cells invasion
- cytotoxicity (cell viability, % vs vehicle) [3]: induced cytotoxicity
- cytotoxicity (cell viability, % vs vehicle) in combination with chemotherapeutic drugs [3]: induced cytotoxicity
- CXCL8 gene expression (normalized versus vehicle) [4]: reduced
- cytotoxicity (cell viability, % vs vehicle) in combination [5]: induced cytotoxicity
- cytotoxicity (cell viability, % vs vehicle) [5]: induced cytotoxicity
- cytotoxicity (cell viability, % vs vehicle) in combination with chemotherapeutic drugs [5]: induced cytotoxicity
- cytotoxicity (cell viability, % vs vehicle) [6]: induced cytotoxicity
- dose dependence of effect on cell viability [7]: dose dependent effect
- cytotoxicity (cell viability, % vs vehicle) [8]: induced cytotoxicity
- IL-1beta gene expression (normalized versus vehicle) [13]: reduced
- IL-33 gene expression (normalized versus vehicle) [10]: reduced
